Converted amounts (≈) assume the structure as drawn. Read-outs that look alike come from different tables or passages of the source.
Legend:
[1] = system: E. faecalis (ATCC 29212); assay: Antibacterial activity (MIC), Gram-positive type strain; type: cell-based, Enteroccocus faecalis; conditions: Enterococcus faecalis, ATCC29212; Table 13
[2] = system: N. gonorrheae (ATCC 49226); assay: Antibacterial activity (MIC), Gram-negative type strain; type: cell-based, Neisseria gonorrhoeae; conditions: Neisseria gonorrhoeae, ATCC49226; Table 13
[3] = system: S. aureus (ATCC 29213); assay: Antibacterial activity (MIC), Gram-positive type strain; type: cell-based, Staphylococcus aureus; conditions: Staphylococcus aureus, ATCC29213; Table 13
[4] = system: H. influenzae (ATCC 49247); assay: Antibacterial activity (MIC), Gram-negative type strain; type: cell-based, Haemophilus influenzae; conditions: Haemophilus influenzae, ATCC49247; Table 13
[5] = system: E. coli (ATCC 25922); conditions: for MIC of Compound (μg/ml) in the presence of PMBN (128 μg/ml): Table 1, (b) No effect; for MIC of Compound (μg/ml) in the presence of PMBN (32 μg/ml): Table 12, (b) No significant effect
[6] = system: E. coli (ATCC 25922); assay: microbe, parasite or virus in culture; conditions: Escherichia coli
[7] = ATCC25922, read-out: MIC Compound alone, Table 1
[8] = ATCC25922, read-out: MIC Compound alone, Table 12
[9] = ATCC25922, read-out: MIC Compound alone

| SMILES | MIC [1] | MIC [2] | MIC [3] | MIC [4] | MIC of Compound (μg/ml) in the presence of PMBN (32 μg/ml) [5] | also measured |
| --- | --- | --- | --- | --- | --- | --- |
| CCNC(=O)Nc1nc2cc(-c3cnc(N4CCCCS4(=O)=O)nc3)cc(-c3ccccn3)c2s1 [Compound A-24, 1-(5-(2-(1,1-dioxido-1,2-thiazinan-2-yl)pyrimidin-5-yl)-7-(pyridin-2-yl)benzo[d]thiazol-2-yl)-3-ethyl-urea] | 0.03 µg/mL (≈ 0.0589 µM) | 0.12 µg/mL (≈ 0.235 µM) | 0.06 µg/mL (≈ 0.118 µM) | 0.5 µg/mL (≈ 0.981 µM) | – | – |
| CCNC(=O)Nc1nc2cc(-c3ccc(N4CCCS4(=O)=O)nc3)cc(-c3ccccn3)c2s1 [Compound A-25, 1-[5-[6-(1,1-dioxo-1,2-thiazolidin-2-yl)-3-pyridyl]-7-(2-pyridyl)-1,3-benzothiazol-2-yl]-3-ethylurea] | 0.06 µg/mL (≈ 0.121 µM) | 0.5 µg/mL (≈ 1.01 µM) | 0.06 µg/mL (≈ 0.121 µM) | 1 µg/mL (≈ 2.02 µM) | – | – |
| CCNC(=O)Nc1nc2cc(-c3cnc(N4CCCS4(=O)=O)nc3)cc(-c3ccccn3)c2s1 [Compound A-26, 1-(5-(2-(1,1-dioxidoisothiazolidin-2-yl)pyrimidin-5-yl)-7-(pyridin-2-yl)benzo[d]thiazol-2-yl)-3-ethylurea] | 0.06 µg/mL (≈ 0.121 µM) | 0.25 µg/mL (≈ 0.504 µM) | 0.06 µg/mL (≈ 0.121 µM) | 0.5 µg/mL (≈ 1.01 µM) | – | – |
| CCNC(=O)Nc1nc2cc(-c3cnc(N4CCCS4(=O)=O)nc3)cc(-c3ccc(C)cn3)c2s1 [Compound A-28, 1-(5-(2-(1,1-dioxidoisothiazolidin-2-yl)pyrimidin-5-yl)-7-(5-methylpyridin-2-yl)benzo[d]thiazol-2-yl)-3-ethylurea] | 0.015 µg/mL (≈ 0.0294 µM) | 0.03 µg/mL (≈ 0.0589 µM) | 0.03 µg/mL (≈ 0.0589 µM) | 0.12 µg/mL (≈ 0.235 µM) | – | – |
| CCNC(=O)Nc1nc2cc(-c3cnc(NS(C)(=O)=O)nc3)cc(-c3ccc(C)cn3)c2s1 [Compound A-30, N-(5-(2-(3-ethylureido)-7-(5-methylpyridin-2-yl)benzo[d]thiazol-5-yl)pyrimidin-2-yl)methanesulfonamide] | ≤ 0.008 µg/mL | ≤ 0.008 µg/mL | 0.06 µg/mL (≈ 0.124 µM) | 0.008 µg/mL (≈ 0.0165 µM) | – | – |
| CCNC(=O)Nc1nc2cc(-c3cnc(NS(C)(=O)=O)nc3)cc(-c3ccccn3)c2s1 [Compound A-31, N-(5-(2-(3-ethylureido)-7-(pyridin-2-yl)benzo[d]thiazol-5-yl)pyrimidin-2-yl)methanesulfonamide] | 0.03 µg/mL (≈ 0.0639 µM) | 0.03 µg/mL (≈ 0.0639 µM) | 2 µg/mL (≈ 4.26 µM) | 0.015 µg/mL (≈ 0.0319 µM) | – | – |
| CCNC(=O)Nc1nc2cc(-c3cnc(NS(=O)(=O)N(C)C)nc3)cc(-c3ccccn3)c2s1 [Compound A-32, 1-[5-[2-(dimethylsulfamoylamino)pyrimidin-5-yl]-7-(2-pyridyl)-1,3-benzothiazol-2-yl]-3-ethyl urea] | 0.015 µg/mL (≈ 0.0301 µM) | 0.03 µg/mL (≈ 0.0602 µM) | 0.12 µg/mL (≈ 0.241 µM) | 0.015 µg/mL (≈ 0.0301 µM) | – | – |
| CCCS(=O)(=O)Nc1ncc(-c2cc(-c3ccccn3)c3sc(NC(=O)NCC)nc3c2)cn1 [Compound A-33, N-(5-(2-(3-ethylureido)-7-(pyridin-2-yl)benzo[d]thiazol-5-yl)pyrimidin-2-yl)propane-1-sulfonamide] | 0.03 µg/mL (≈ 0.0603 µM) | 0.03 µg/mL (≈ 0.0603 µM) | 0.25 µg/mL (≈ 0.502 µM) | 0.12 µg/mL (≈ 0.241 µM) | – | – |
| CCNC(=O)Nc1nc2cc(-c3cnc(NS(=O)(=O)C4CC4)nc3)cc(-c3ccccn3)c2s1 [Compound A-34, N-(5-(2-(3-ethylureido)-7-(pyridin-2-yl)benzo[d]thiazol-5-yl)pyrimidin-2-yl)cyclopropanesulfonamide] | 0.015 µg/mL (≈ 0.0303 µM) | 0.015 µg/mL (≈ 0.0303 µM) | 0.25 µg/mL (≈ 0.504 µM) | 0.12 µg/mL (≈ 0.242 µM) | – | – |
| CCNC(=O)Nc1nc2cc(-c3cnc(NS(=O)(=O)C4CCCC4)nc3)cc(-c3ccccn3)c2s1 [Compound A-35, N-(5-(2-(3-ethylureido)-7-(pyridin-2-yl)benzo[d]thiazol-5-yl)pyrimidin-2-yl)cyclopentanesulfonamide] | ≤ 0.008 µg/mL | ≤ 0.008 µg/mL | ≤ 0.008 µg/mL | 0.03 µg/mL (≈ 0.0573 µM) | – | – |
| CCNC(=O)Nc1nc2cc(-c3cnc(NS(=O)(=O)CC)nc3)cc(-c3ccccn3)c2s1 [Compound A-36, N-(5-(2-(3-ethylureido)-7-(pyridin-2-yl)benzo[d]thiazol-5-yl)pyrimidin-2-yl)ethanesulfonamide] | ≤ 0.008 µg/mL | ≤ 0.008 µg/mL | 0.25 µg/mL (≈ 0.517 µM) | 0.03 µg/mL (≈ 0.062 µM) | – | – |
| CCNC(=O)Nc1nc2cc(-c3cnc(NS(=O)(=O)NCC)nc3)cc(-c3ccccn3)c2s1 [Compound A-37, 1-ethyl-3-[5-[2-(ethylsulfamoylamino)pyrimidin-5-yl]-7-(2-pyridyl)-1,3-benzothiazol-2-yl]urea] | 0.015 µg/mL (≈ 0.0301 µM) | 0.03 µg/mL (≈ 0.0602 µM) | 0.25 µg/mL (≈ 0.501 µM) | 0.12 µg/mL (≈ 0.241 µM) | – | – |
| CCNC(=O)Nc1nc2cc(-c3cnc(NS(=O)(=O)N(C)C)nc3)cc(-c3ccc(C)cn3)c2s1 [Compound A-38, 1-[5-[2-(dimethylsulfamoylamino)pyrimidin-5-yl]-7-(5-methyl-2-pyridyl)-1,3-benzothiazol-2-yl]-3-ethyl urea] | ≤ 0.008 µg/mL | ≤ 0.008 µg/mL | 0.015 µg/mL (≈ 0.0293 µM) | 0.03 µg/mL (≈ 0.0585 µM) | – | – |
| CCNC(=O)Nc1nc2cc(-c3cnc(N4CCC(C)(C(=O)O)CC4)nc3)cc(-c3ccccn3)c2s1 [Example 1 (WO2012/045124), 1-[5-[2-(ethylcarbamoylamino)-7-(2-pyridyl)-1,3-benzothiazol-5-yl]pyrimidin-2-yl]-4-methyl-piperidine-4-carboxylic acid] | – | – | – | – | – | MIC of Compound (μg/ml) in the presence of PMBN (128 μg/ml) [5]: 0.5 µg/mL; MIC [6, 7]: > 64 µg/mL |
| CCNC(=O)Nc1nc2cc(-c3cccnc3)ccc2s1 [Example 1 Compound VI(a) (WO2009/074812), 1-ethyl-3-(5-pyridin-3-yl-benzothiazol-2-yl)-urea] | – | – | – | – | – | MIC of Compound (μg/ml) in the presence of PMBN (128 μg/ml) [5]: 8 µg/mL; MIC [6, 7]: > 64 µg/mL |
| CCNC(=O)Nc1nc2cc(-c3cnc(C(C)(C)O)nc3)cc(-c3cc(CN4CCOCC4)ccn3)c2s1 [Example 28 (WO2013/138860), 1-ethyl-3-[5-[2-(1-hydroxy-1-methyl-ethyl)pyrimidin-5-yl]-7-[4-(morpholinomethyl)-2-pyridyl]-1,3-benzothiazol-2-yl]urea] | – | – | – | – | – | MIC of Compound (μg/ml) in the presence of PMBN (128 μg/ml) [5]: 0.5 µg/mL; MIC [6, 7]: > 64 µg/mL |
| CCNC(=O)Nc1nc2cc(-c3cccnc3)cc(-c3ncccc3N)c2s1 [Example 94 (WO2007/148093)] | – | – | – | – | – | MIC of Compound (μg/ml) in the presence of PMBN (128 μg/ml) [5]: 32 µg/mL; MIC [6, 7]: > 64 µg/mL |
| CCNC(=O)Nc1nc2cc(-c3cccnc3)cc(-c3ccccn3)c2s1 [Example 163 (WO2007/148093)] | – | – | – | – | – | MIC of Compound (μg/ml) in the presence of PMBN (128 μg/ml) [5]: 0.25 µg/mL; MIC [6, 7]: > 64 µg/mL |
| C[C@@H](O)[C@H]1C(=O)N2C(C(=O)O)=C(SCCN=CN)C[C@H]12 [Imipenem, reference compound] | – | – | – | – | 0.5^(b) μg/ml | MIC [6, 8]: 0.5 µg/mL (≈ 1.67 µM) |
| NC[C@H]1O[C@H](O[C@H]2[C@H](O)[C@@H](O[C@H]3O[C@H](CO)[C@@H](O)[C@H](N)[C@H]3O)[C@H](N)C[C@@H]2N)[C@H](O)[C@@H](O)[C@@H]1O [Kanamycin, reference compound] | – | – | – | – | 4^(b) μg/ml | MIC [6, 8]: 8 µg/mL (≈ 16.5 µM) |
| C[C@H]1COc2c(N3CCN(C)CC3)c(F)cc3c(=O)c(C(=O)O)cn1c23 [Levofloxacin, reference compound] | – | – | – | – | 0.008^(b) μg/ml | MIC [6, 8]: 0.008 µg/mL (≈ 0.0221 µM) |
| C[C@@H](O)[C@H]1C(=O)N2C(C(=O)O)=C(S[C@@H]3CN[C@H](C(=O)N(C)C)C3)[C@H](C)[C@H]12 [Meropenem, reference compound] | – | – | – | – | 0.5^(b) μg/ml | MIC [6, 8]: 0.5 µg/mL (≈ 1.3 µM) |
| CC1COc2c(N3CCN(C)CC3)c(F)cc3c(=O)c(C(=O)O)cn1c23 (stereo not drawn) [Ofloxacin, reference compound] | – | – | – | – | 0.03^(b) μg/ml | MIC of Compound (μg/ml) in the presence of PMBN (128 μg/ml) [5]: 0.03^(b) μg/ml; effect of the presence of PMBN on activity compared to compound alone ([5]; Table 1 experiment): no effect; MIC [6, 7]: 0.03 µg/mL (≈ 0.083 µM); MIC [6, 8]: 0.03 µg/mL (≈ 0.083 µM) |
| CCN1CCN(C(=O)N[C@@H](C(=O)N[C@@H]2C(=O)N3[C@@H]2SC(C)(C)[C@@H]3C(=O)O)c2ccccc2)C(=O)C1=O [Piperacillin, reference compound] | – | – | – | – | 0.25 µg/mL | MIC [6, 9]: 2 µg/mL (≈ 3.86 µM) |
| CN(C)[C@@H]1C(O)=C(C(N)=O)C(=O)[C@@]2(O)C(O)=C3C(=O)c4c(O)cccc4[C@@](C)(O)[C@H]3C[C@@H]12 [Tetracycline, reference compound] | – | – | – | – | 1^(b) μg/ml | MIC [6, 9]: 1 µg/mL (≈ 2.25 µM) |
| COc1cc(Cc2cnc(N)nc2N)cc(OC)c1OC [Trimethoprim, reference compound] | – | – | – | – | 2^(b) μg/ml | MIC [6, 8]: 0.5 µg/mL (≈ 1.72 µM) |
